Measured values from patent US8012967B2, “Minor groove binders” (University of Strathclyde, priority 2006, dated 2011).
Like-named read-outs stand apart in the source and are kept apart here.

What was measured:
Type in all cases: cell-based
[1] = system: Staphylococcus aureus Strain 2 (NCTC 6571); test: MIC, Staphylococcus aureus Strain 2; conditions: Staphylococcus aureus, NCTC6571, read-out: Minimum inhibitory concentrations (MICs), S. aureus 2
In short: (§1)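 Broth microdilution with doubling dilutions of compound in Mueller-Hinton Broth, incubated at 37° C. MIC read from the colour pattern in the wells. Sterility and growth controls included.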

[2] = system: Candida albicans (NCPF3179); test: MIC, Candida albicans; conditions: Candida albicans, NCPF3179, read-out: Minimum inhibitory concentrations (MICs), C. albicans
[3] = system: Aspergillus niger (IMI 1745); test: MIC, Aspergillus niger; conditions: Aspergillus niger, read-out: Minimum inhibitory concentrations (MICs), A. niger
[4] = system: Mycobacter fortuitum (NCTC 10394); test: MIC, Mycobacter fortuitum; conditions: Mycolicibacterium fortuitum, NCTC10394, read-out: Minimum inhibitory concentrations (MICs), M. fortuitum
Description: The effects of compounds of the invention in relation to inhibiting the growth of various microorganisms was determined using methods known to those skilled in the art, for example in vitro methods as described in J. Med. Chem. 47, 2133-2156 (2004) and in vivo methods as described in J. Med. Microbiol. 46, 208-213 (1997), the disclosures of which documents are hereby incorporated by reference. In particular, minimum inhibitory concentrations (MICs) against microorganisms (e.g. S. Aureus, Streptococcus faecalis, Aspergillus niger, Candida albicans or Mycobacterium fortuitum) for compounds of the invention may be measured using procedures such as those described in A. J. Drummond and […] development of microbiological methods for phytochemical screening” Recent Res. Devel. […] The test wells on each 96 well microtitre plate were initially inoculated with culture medium (100 μL) using Mueller-Hinton Broth for antibacterial assays and Sabouraud Broth for antifungal assays. A solution of each test sample (100 μL) was added to one row of each plate and a series of doubling dilutions made for successive rows. Incubation was at 37° C. for antibacterial assay and 25° C. for antifungal assay. […] From the observed pattern of colour, the MIC was determined. All tests included sterility and growth controls.

[5] = system: Staphylococcus aureus Strain 1 (BSAC04(1)) (Clinical isolate from Glasgow Royal Infirmary); test: MIC, Staphylococcus aureus Strain 1; conditions: Staphylococcus aureus, read-out: Minimum inhibitory concentrations (MICs), S aureus 1
In short: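 Broth microdilution in Mueller-Hinton Broth: test sample at 200 μg/ml working concentration, serially doubled across rows, incubated at 37° C. MIC taken from the colour pattern, with sterility and growth controls included.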

[6] = system: Streptococcus faecalis (NCTC 775); test: MIC, Streptococcus faecalis; conditions: Enterococcus faecalis, NCTC775, read-out: Minimum inhibitory concentrations (MICs), St. faecalis
In short: as §1

[7] = value in parentheses, na = not active

Work on `Cn1cc(NC(=O)c2cc(NC(=O)c3ccc(/C=C/c4cnc5ccccc5c4)cc3)cn2C)cc1C(=O)NCCN1CCOCC1` [Example 2, 1-Methyl-4-({[1-methyl-4-({4-[(E)-2-(3-quinolinyl)ethenyl]benzoyl}amino)-1H-pyrrol-2-yl]carbonyl}amino)-N-[2-(4-morpholinyl)ethyl]-1H-pyrrole-2-carboxamide] yielded an MIC [1, 7] of 0.25 µg/mL, an MIC ([1]; value outside parentheses) of 0.32 µM and an MIC [2, 7] of 25 µg/mL. It also gave an MIC ([2]; value outside parentheses) of 33.5 µM, an MIC [3, 7] of 50 µg/mL and an MIC ([3]; value outside parentheses) of 67 µM. For the same compound, the MIC [4, 7] was 50 µg/mL, the MIC ([4]; value outside parentheses) was 67 µM and the MIC [5, 7] was 0.12 µg/mL. It also gave an MIC ([5]; value outside parentheses) of 0.16 µM, an MIC [6, 7] of 25 µg/mL and an MIC ([6]; value outside parentheses) of 33.5 µM.
